Reference: patent US20210221822A1, “TRICYCLIC DERIVATIVES INHIBITOR, PREPARATION METHOD, AND APPLICATIONS THEREOF” (Jiangsu Hansoh Pharmaceutical Group Co., Ltd., priority 2018, published 2021)

Legend:
[1] = system: PI3Kα mutant cancer cells HGC-27 (E542K); assay: Cell Titer-Glo proliferation inhibition, HGC-27; type: cell-based; conditions: Homo sapiens, 48 to 96 hours
Experimental: (§1) Experimental method: The proliferation inhibitory effect of the compounds of the examples on PI3Kα mutant cancer cell lines HCC1954, HGC-27 and MKN1 was determined by Cell Titer-Glo method. The cell lines were cultured in RPMI 1640 medium (Gibco #22400089) containing 10% FBS (Gibco #10091148) and 1% P/S (Hyclone #SV30010) at 37° C. and 5% CO2. Before the experiment, the cells were collected and counted, and then the cell density was adjusted. The cells were inoculated in a white 96-well plate (Corning #3610) at a density of 1000 to 10000 cells/well, and incubated in an incubator at 37° C., 5% CO2 overnight. The compound solution of different concentrations was added, and corresponding vehicle control was set at the same time. The cell plate was further incubated in an incubator at 37° C., 5% CO2 for 48 to 96 hours. The cell plate and its content were equilibrated to room temperature. 20 to 100 μL of Cell Titer-Glo solution (Promega #G7573) was added to each well, and the plate was shaked well and incubated at room temperature in the dark for 5 to 30 minutes. The chemiluminescence value was measured by the BioTek SynergyH1 microplate reader.
(§2) The percentage inhibition data of the well treated by the compounds of the examples was calculated through the vehicle control well on the plate {% inhibition rate=100−(test compound value/vehicle control value)×100}. The IC50 value was calculated by fitting the data of different concentrations and corresponding percentage inhibition rates to a four-parameter nonlinear logic formula with GraphPad prism.

[2] = system: PI3Kα mutant cancer cells MKN1 (E545K); assay: Cell Titer-Glo proliferation inhibition, MKN1; type: cell-based; conditions: Homo sapiens, MKN-1, 48 to 96 hours
Experimental: as §1, §2

[3] = Pharmacokinetic (PK) assay in mice; type: in vivo; conditions: male, Balb/c, mouse, plasma, po, single intragastric 5 mg/kg
Outline: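 Male Balb/c mice received a single intragastric dose of 5 mg/10 ml/kg in 0.5% CMC-Na. Orbital blood was taken at 0.5, 1, 2, 4, 6, 8 and 24 h into K2-EDTA; plasma was acetonitrile-precipitated and analyzed by LC-MS/MS, and PK parameters were calculated.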

PI3Kα = biological target: T1, PI3Kα (Homo sapiens, UniProt P42336); assay: ADP-Glo lipid kinase assay, PI3Kα kinase activity; type: biochemical
T1 construct: purchased Promega V1721
T1 sequence (P42336 whole entry): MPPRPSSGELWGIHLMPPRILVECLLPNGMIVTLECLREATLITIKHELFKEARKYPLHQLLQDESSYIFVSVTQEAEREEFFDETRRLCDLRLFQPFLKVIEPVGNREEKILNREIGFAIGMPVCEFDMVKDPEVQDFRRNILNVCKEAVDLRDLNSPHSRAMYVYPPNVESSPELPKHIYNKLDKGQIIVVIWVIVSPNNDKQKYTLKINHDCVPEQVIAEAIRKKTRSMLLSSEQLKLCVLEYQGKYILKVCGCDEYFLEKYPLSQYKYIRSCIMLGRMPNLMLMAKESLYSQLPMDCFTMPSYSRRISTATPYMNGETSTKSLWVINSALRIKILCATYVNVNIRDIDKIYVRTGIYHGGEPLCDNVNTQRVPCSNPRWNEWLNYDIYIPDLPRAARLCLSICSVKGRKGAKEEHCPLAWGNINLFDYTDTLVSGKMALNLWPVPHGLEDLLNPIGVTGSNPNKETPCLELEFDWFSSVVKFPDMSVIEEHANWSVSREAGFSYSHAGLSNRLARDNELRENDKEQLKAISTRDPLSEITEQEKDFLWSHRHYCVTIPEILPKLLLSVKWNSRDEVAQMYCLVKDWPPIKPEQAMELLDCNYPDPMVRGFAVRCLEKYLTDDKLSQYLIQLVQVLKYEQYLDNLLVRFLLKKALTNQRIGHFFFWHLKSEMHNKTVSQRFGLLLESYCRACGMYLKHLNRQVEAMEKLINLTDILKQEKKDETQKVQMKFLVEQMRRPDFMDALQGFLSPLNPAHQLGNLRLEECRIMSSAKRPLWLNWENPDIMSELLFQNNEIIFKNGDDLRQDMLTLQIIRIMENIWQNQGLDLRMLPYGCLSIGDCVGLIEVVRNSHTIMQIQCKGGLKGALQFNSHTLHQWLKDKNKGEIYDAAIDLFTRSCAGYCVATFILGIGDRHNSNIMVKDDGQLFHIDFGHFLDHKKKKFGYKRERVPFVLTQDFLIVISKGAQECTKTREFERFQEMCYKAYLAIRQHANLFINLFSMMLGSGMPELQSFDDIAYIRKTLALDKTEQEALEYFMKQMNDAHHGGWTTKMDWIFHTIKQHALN
T1 sequence (P27986 whole entry partner): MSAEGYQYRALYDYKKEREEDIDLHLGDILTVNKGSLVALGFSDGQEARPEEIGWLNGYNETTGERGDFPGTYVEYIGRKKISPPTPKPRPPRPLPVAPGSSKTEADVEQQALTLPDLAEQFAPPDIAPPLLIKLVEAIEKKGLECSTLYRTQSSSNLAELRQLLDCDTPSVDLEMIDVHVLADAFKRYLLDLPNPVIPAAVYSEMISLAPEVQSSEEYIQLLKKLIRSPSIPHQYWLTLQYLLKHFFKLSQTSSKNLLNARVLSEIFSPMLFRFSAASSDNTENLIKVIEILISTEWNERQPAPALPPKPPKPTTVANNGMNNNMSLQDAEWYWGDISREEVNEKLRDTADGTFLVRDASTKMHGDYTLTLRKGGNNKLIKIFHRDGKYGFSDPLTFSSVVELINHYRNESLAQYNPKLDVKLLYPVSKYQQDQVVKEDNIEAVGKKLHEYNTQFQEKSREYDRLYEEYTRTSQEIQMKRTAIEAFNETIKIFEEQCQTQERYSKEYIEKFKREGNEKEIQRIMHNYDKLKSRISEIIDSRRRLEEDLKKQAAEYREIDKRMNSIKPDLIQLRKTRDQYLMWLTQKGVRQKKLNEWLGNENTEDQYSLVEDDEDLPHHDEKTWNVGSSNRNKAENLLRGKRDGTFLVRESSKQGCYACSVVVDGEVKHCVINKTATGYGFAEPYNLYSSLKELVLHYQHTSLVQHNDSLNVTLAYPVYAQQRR
Outline: (§3)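 ADP-Glo luminescence measured ADP formed by PI3Kα, β, γ or δ (0.1-2 nM working solution) with PIP2:3PS (50 μM added solution) and ATP in HEPES/MgCl2/NaCl/BSA buffer, 90 to 120 min at room temperature. % inhibition was set against DMSO and no-kinase controls, and IC50 came from a four-parameter fit.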

[4] = system: PI3Kα mutant cancer cells HCC1954 (H1047R); assay: Cell Titer-Glo proliferation inhibition, HCC1954; type: cell-based; conditions: Homo sapiens, 48 to 96 hours
Experimental: as §1, §2

PI3Kγ = biological target: T2, PI3Kγ (Homo sapiens, UniProt P48736); assay: ADP-Glo lipid kinase assay, PI3Kγ kinase activity; type: biochemical; conditions: 0.4 nM enzyme, 120 min, 50 μM ATP
T2 construct: purchased Thermofisher PV4786
T2 sequence (P48736 whole entry): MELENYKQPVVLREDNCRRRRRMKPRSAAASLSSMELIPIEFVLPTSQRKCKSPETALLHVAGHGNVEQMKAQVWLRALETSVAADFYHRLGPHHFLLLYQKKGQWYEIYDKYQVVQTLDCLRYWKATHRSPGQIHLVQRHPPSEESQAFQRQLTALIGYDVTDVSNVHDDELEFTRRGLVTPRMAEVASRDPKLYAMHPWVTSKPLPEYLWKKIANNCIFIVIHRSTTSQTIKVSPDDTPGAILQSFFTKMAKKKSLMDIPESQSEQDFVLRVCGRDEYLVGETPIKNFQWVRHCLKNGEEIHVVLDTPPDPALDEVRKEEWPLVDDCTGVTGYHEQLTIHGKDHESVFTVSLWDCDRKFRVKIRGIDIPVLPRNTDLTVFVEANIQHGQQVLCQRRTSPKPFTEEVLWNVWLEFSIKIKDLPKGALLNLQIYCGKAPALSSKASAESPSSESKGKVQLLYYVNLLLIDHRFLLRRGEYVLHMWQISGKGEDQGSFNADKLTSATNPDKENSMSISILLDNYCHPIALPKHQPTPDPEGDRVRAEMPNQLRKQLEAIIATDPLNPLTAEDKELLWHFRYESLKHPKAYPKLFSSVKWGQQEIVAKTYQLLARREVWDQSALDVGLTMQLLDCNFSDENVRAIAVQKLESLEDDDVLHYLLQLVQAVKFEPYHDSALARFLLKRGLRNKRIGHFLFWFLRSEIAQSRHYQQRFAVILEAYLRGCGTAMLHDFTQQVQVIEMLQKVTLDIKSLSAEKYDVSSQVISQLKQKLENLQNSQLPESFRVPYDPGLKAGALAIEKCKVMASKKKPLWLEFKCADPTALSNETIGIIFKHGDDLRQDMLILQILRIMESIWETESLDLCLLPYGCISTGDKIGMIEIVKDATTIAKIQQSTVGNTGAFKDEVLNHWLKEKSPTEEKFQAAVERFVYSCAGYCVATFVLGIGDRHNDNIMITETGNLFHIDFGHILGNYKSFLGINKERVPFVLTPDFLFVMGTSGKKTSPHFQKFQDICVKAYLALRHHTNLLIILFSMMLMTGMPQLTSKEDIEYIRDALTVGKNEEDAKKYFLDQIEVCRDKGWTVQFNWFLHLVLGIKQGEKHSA
Outline: as §3

For `C[C@H](Nc1ccc2c(c1)OCCn1cc(N3C(=O)COC[C@H]3C(F)F)nc1-2)C(N)=O` [Example 68, (S)-2-((2-((S)-3-(difluoromethyl)-5-oxomorpholino)-5,6-dihydrobenzo[f]imidazo[1,2-d][1,4]oxazepin-9-yl)amino)propanamide], which IC50 [1] is on record?
The IC50 was 111 nM.

And the IC50 [2]?
The IC50 was 113 nM.

What about the AUC(0-t) ([3]; read-out: Area under curve AUC0-t) of the same compound?
The AUC(0-t) was 1320 ng·h/mL.

And the AUC(0-inf) ([3]; read-out: Area under curve AUC0-∞)?
Its AUC(0-inf) is 1340 ng·h/mL.

What about the half-life ([3]; read-out: Half-life t1/2(h) (converted)) of the same compound?
The half-life was 1.6 h.

What about the MRT ([3]; read-out: Mean residence time MRT) of the same compound?
The MRT was 1.8 h.

What about the Tmax ([3]; read-out: Peak time tmax) of the same compound?
Its Tmax is 30 min.

And the Cmax ([3]; read-out: Plasma concentration Cmax)?
Its Cmax is 641 ng/mL.

And the IC50 (PI3Kα; ADP-Glo, 0.1 nM enzyme, 120 min, 50 μM ATP)?
Its IC50 is 0.38 nM.

And the “Selectivity of PI3Kα vs PI3Kβ” value (PI3Kα; ratio of IC50 PI3Kβ to IC50 PI3Kα)?
The value was 521.

And the “Selectivity of PI3Kα vs PI3Kγ” value (PI3Kα; ratio of IC50 PI3Kγ to IC50 PI3Kα)?
Its value is 208.

What about the “Selectivity of PI3Kα vs PI3Kδ” value (PI3Kα; ratio of IC50 PI3Kδ to IC50 PI3Kα) of the same compound?
The value was 63.

What about the IC50 [4] of the same compound?
The IC50 was 70 nM.

And the IC50 (PI3Kγ)?
Its IC50 is 79 nM.
